Results reported in patent US8518973B2, “Compounds having 4-pyridylalkylthio group as a substituent” (Santen Pharmaceutical Co., Ltd., priority 2003, dated 2013).

test system: VEGF-induced HUVEC growth; test: VEGF-induced HUVEC growth reaction evaluation system (cell growth inhibitory action test); type: cell-based; conditions: Homo sapiens, 72 h, 20 μg/ml test compound solution added 5 μl per well (100 μl), VEGF solution 400 ng/ml 5 μl per well, three days, absorbance at 450 nm, read-out: Cell growth inhibition rate (%)
Description: Cell growth inhibitory action tests were carried out using a VEGF-induced HUVEC growth reaction evaluation system (HUVEC stands for human umbilical vein endothelial cells), which is one of widely-used methods of evaluating in vitro angiogenesis inhibitory effects of drugs.
As one of widely-used methods of evaluating angiogenesis inhibitory effects of drugs, a cell growth inhibitory action test using a VEGF-induced HUVEC growth reaction evaluation system was reported in Cancer Res., 59, 99-106(1999). According to the method described in the above-mentioned literature, cell growth inhibitory action tests of the present compounds were carried out, their cell growth inhibition rates were calculated, and angiogenesis inhibitory effects of the present compounds were evaluated using the obtained rates as indexes.
Each test compound was dissolved in dimethyl sulfoxide (hereinafter abbreviated as “DMSO”), and the obtained solution was diluted with commercially available phosphoric acid buffer solution (hereinafter abbreviated as “PBS”) to prepare a 20 μg/ml test compound solution.
HUVEC was suspended in a 0.5% fetal bovine serum (hereinafter abbreviated as “FBS”)-containing F12K medium to prepare a 2×10^4 cells/ml HUVEC suspension.
VEGF was dissolved in 0.1% bovine serum albumin-containing PBS, and the obtained solution was diluted with the 0.5% FBS-containing F12K medium to prepare a 400 ng/ml VEGF solution.
• 1) The HUVEC suspension was inoculated in each amount of 100 μl into each well of a 96-well plate coated with I type collagen (2×10^3 cells per well). • 2) One day after inoculation, the test compound solution was added in an amount of 5 μl per well. • 3) One hour after adding the test compound solution, the VEGF solution was added in an amount of 5 μl per well. • 4) Three days after adding the VEGF solution, cell counting kit-8(Dojin Chemical Co., Ltd.) was added in an amount of 10 μl per well. • 5) After three hours, the above-mentioned plate was attached to an absorptiometer (multi label counter ARVO), and absorbance at 450 nm of each well suspension (hereinafter referred to as “test compound suspension”) was measured. • 6) A test was carried out in the same manner as in 1) to 5) except that 1.0% DMSO was used instead of the test compound solution.
Incubation was carried out under conditions of 37° C., 5% carbon dioxide and 95% air in an incubator throughout the above-mentioned test steps.
Cell growth inhibition rates, which are indexes of angiogenesis inhibitory effects, were calculated by the following calculation equation.

Row | Compound | inhibition at 20 µg/mL (stock)
1 | Cc1cc(C)cc(NC(=O)c2cccnc2SCc2ccnc(C(=O)O)c2)c1 [6-1, 2-(2-Carboxypyridin-4-ylmethylthio)-N-(3,5-dimethylphenyl)pyridine-3-carboxamide] | 72%
2 | COc1ccc(NC(=O)c2ccccc2SCc2ccncc2)cc1OC [1-93, N-(3,4-Dimethoxyphenyl)-2-(4-pyridylmethylthio)benzamide] | 72%
3 | Cc1ccc(NC(=O)c2sccc2SCc2ccncc2)cc1C [1-253, N-(3,4-Dimethylphenyl)-3-(4-pyridylmethylthio)thiophene-2-carboxamide] | 100%
4 | CC(Sc1ncccc1C(=O)Nc1cccc(Cl)c1)c1ccncc1 (stereo not drawn) [5-2, N-(3-Chlorophenyl)-2-[1-(4-pyridyl)ethylthio]pyridine-3-carboxamide] | 96%
5 | Cc1cc(C)cc(NC(=O)c2cccnc2SCc2ccnc(C)c2)c1 [1-307, N-(3,5-Dimethylphenyl)-2-(2-methylpyridin-4-ylmethylthio)pyridine-3-carboxamide] | 100%
6 | O=C(Nc1ccc(OC(F)(F)F)cc1)c1cccnc1SCc1ccnc(F)c1 [1-214, 2-(2-Fluoropyridin-4-ylmethylthio)-N-(4-trifluoromethoxyphenyl)pyridine-3-carboxamide] | 92%
7 | CCOC(=O)Cc1ccc(NC(=O)c2cccnc2SCc2ccncc2)cc1 [1-61, N-(4-Ethoxycarbonylmethylphenyl)-2-(4-pyridylmethylthio)pyridine-3-carboxamide] | 65%
8 | Cc1cc(C)cc(NC(=O)c2cccnc2SCc2ccnc(C(N)=O)c2)c1 [8-1, 2-(2-Carbamoylpyridin-4-ylmethylthio)-N-(3,5-dimethylphenyl)pyridine-3-carboxamide] | 100%
9 | Cc1cc(NC(=O)c2ccccc2SCc2ccncc2)ccc1Br [1-111, N-(4-Bromo-3-methylphenyl)-2-(4-pyridylmethylthio)benzamide] | 100%
10 | CC(C)(C)c1ccc(NC(=O)c2cccnc2SCc2cc[n+]([O-])cc2)cc1 [4-10, N-(4-tert-Butylphenyl)-2-(1-oxopyridin-4-ylmethylthio)pyridine-3-carboxamide] | 100%
11 | CSc1cc(CSc2ncccc2C(=O)Nc2cc(C)cc(C)c2)ccn1 [1-231, N-(3,5-Dimethylphenyl)-2-(2-methylthiopyridin-4-ylmethylthio)pyridine-3-carboxamide] | 100%
12 | O=C(Nc1cc2ccccc2cn1)c1ccccc1SCc1ccncc1 [1-209, N-(3-Isoquinolyl)-2-(4-pyridylmethylthio)benzamide] | 99%
13 | COc1cc(OC)c(NC(=O)c2cccnc2SCc2ccncc2)cc1Cl [1-85, N-(5-Chloro-2,4-dimethoxyphenyl)-2-(4-pyridylmethylthio)pyridine-3-carboxamide] | 95%
14 | Cc1cc(C)cc(NC(=O)c2cccnc2SCc2ccnc(C(=O)Nc3ccc(Cl)cc3)c2)c1 [7-2, 2-[2-(4-Chlorophenylaminocarbonyl)pyridin-4-ylmethylthio]-N-(3,5-dimethylphenyl)pyridine-3-carboxamide] | 100%
15 | COc1ccc(NC(=O)c2cccnc2SCc2ccncc2)cc1OC [1-72, N-(3,4-Dimethoxyphenyl)-2-(4-pyridylmethylthio)pyridine-3-carboxamide] | 100%
16 | O=C(Nc1cc2ccccc2cn1)c1sccc1SCc1ccncc1 [1-274, N-(3-Isoquinolyl)-3-(4-pyridylmethylthio)thiophene-2-carboxamide] | 95%
17 | O=C(Nc1cccc(Cl)c1)c1ccccc1SCc1ccncc1 [1-90, N-(3-Chlorophenyl)-2-(4-pyridylmethylthio)benzamide] | 100%
18 | O=C(Nc1ccc(Cl)cc1F)c1cccnc1SCc1ccncc1 [1-69, N-(4-Chloro-2-fluorophenyl)-2-(4-pyridylmethylthio)pyridine-3-carboxamide] | 95%
19 | O=C(Nc1ccc(F)c(F)c1)c1sccc1SCc1ccncc1 [1-269, N-(3,4-Difluorophenyl)-3-(4-pyridylmethylthio)thiophene-2-carboxamide] | 53%
20 | Cc1cc(NC(=O)c2cccnc2SCc2ccncc2)ccc1Cl [1-79, N-(4-Chloro-3-methylphenyl)-2-(4-pyridylmethylthio)pyridine-3-carboxamide] | 100%

Row | Compound | inhibition at 20 µg/mL (stock)
21 | Cc1cc(NC(=O)c2ccsc2SCc2ccncc2)ccc1Br [1-289, N-(4-Bromo-3-methylphenyl)-2-(4-pyridylmethylthio)thiophene-3-carboxamide] | 100%
22 | Cc1cc(C)cc(NC(=O)c2sccc2SCc2ccnc(Cl)c2)c1 [1-251, 3-(2-Chloropyridin-4-ylmethylthio)-N-(3,5-dimethylphenyl)thiophene-2-carboxamide] | 77%
23 | Cc1cccc(NC(=O)c2ccsc2SCc2ccncc2)c1 [1-285, N-(3-Methylphenyl)-2-(4-pyridylmethylthio)thiophene-3-carboxamide] | 100%
24 | Cc1ccc(NC(=O)c2cccnc2SCc2ccncc2)cc1Cl [1-78, N-(3-Chloro-4-methylphenyl)-2-(4-pyridylmethylthio)pyridine-3-carboxamide] | 100%
25 | O=C(Nc1ccc(Cl)cc1)c1cccnc1SCc1cc[n+]([O-])cc1 [4-1, N-(4-Chlorophenyl)-2-(1-oxopyridin-4-ylmethylthio)pyridine-3-carb oxamide] | 93%
26 | O=C(Nc1ccc(C(F)(F)F)cc1)c1ccsc1SCc1ccncc1 [1-290, 2-(4-Pyridylmethylthio)-N-(4-trifluoromethylphenyl)thiophene-3-carboxamide] | 100%
27 | Cc1ccc(NC(=O)c2cccnc2SCc2cc[n+]([O-])cc2)cc1C [4-5, N-(3,4-Dimethylphenyl)-2-(1-oxopyridin-4-ylmethylthio)pyridine-3-carboxamide] | 100%
28 | Cc1cc(C)cc(NC(=O)c2cccnc2SCc2ccnc(F)c2)c1 [1-213, N-(3,5-Dimethylphenyl)-2-(2-fluoropyridin-4-ylmethylthio)pyridine-3-carboxamide] | 100%
29 | O=C(Nc1cnc2ccccc2c1)c1ccccc1SCc1ccncc1 [1-95, 2-(4-Pyridylmethylthio)-N-(3-quinolyl)benzamide] | 100%
30 | O=C(Nc1ccc2c(c1)CCC2)c1ccsc1SCc1ccncc1 [1-287, N-(5-Indanyl)-2-(4-pyridylmethylthio)thiophene-3-carboxamide] | 95%
31 | CSc1cc(CSc2ncccc2C(=O)Nc2ccc(Cl)cc2)ccn1 [1-232, N-(4-Chlorophenyl)-2-(2-methylthiopyridin-4-ylmethylthio)pyridine-3-carboxamide] | 75%
32 | O=C(Nc1ccc(OC(F)(F)F)cc1)c1sccc1SCc1ccncc1 [1-273, 3-(4-Pyridylmethylthio)-N-(4-trifluoromethoxyphenyl)thiophene-2-carboxamide] | 100%
33 | Cc1cc(C)cc(NC(=O)c2cccnc2SCc2ccnc(Cl)c2)c1 [1-226, 2-(2-Chloropyridin-4-ylmethylthio)-N-(3,5-dimethylphenyl)pyridine-3-carboxamide] | 100%
34 | Cc1cc(C)cc(NC(=O)c2ccsc2SCc2ccncc2)c1 [1-291, N-(3,5-Dimethylphenyl)-2-(4-pyridylmethylthio)thiophene-3-carboxamide] | 100%
35 | COc1cc(CSc2ncccc2C(=O)Nc2cc(C)cc(C)c2)ccn1 [1-300, N-(3,5-Dimethylphenyl)-2-(2-methoxypyridin-4-ylmethylthio)pyridine-3-carboxamide] | 100%
36 | O=C(Nc1ccc2c(c1)CCC2)c1cccnc1SCc1ccnc(Cl)c1 [1-216, 2-(2-Chloropyridin-4-ylmethylthio)-N-(5-indanyl)pyridine-3-carboxamide] | 100%
37 | CC(C)(C)c1ccc(NC(=O)c2sccc2SCc2ccncc2)cc1 [1-256, N-(4-tert-Butylphenyl)-3-(4-pyridylmethylthio)thiophene-2-carboxamide] | 100%
38 | Cc1cc(NC(=O)c2cccnc2SCc2cc[n+]([O-])cc2)ccc1F [4-7, N-(4-Fluoro-3-methylphenyl)-2-(1-oxopyridin-4-ylmethylthio)pyridine-3-carboxamide] | 100%
39 | O=C(Nc1ccc(Cl)c(C(F)(F)F)c1)c1cccnc1SCc1ccncc1 [1-74, N-(4-Chloro-3-trifluoromethylphenyl)-2-(4-pyridylmethylthio)pyridine-3-carboxamide] | 100%
